From the supplement of paper PMC10307832

Columns and labels:
Experiment in all cases: relative viability (nuclei count vs DMSO), 5 days (fraction); higher = more cells survive
[1] = compound: CC(C)C[C@H](NC(=O)[C@H](Cc1ccccc1)NC(=O)c1cnccn1)B(O)O [Bortezomib] + COc1cccc2cc(-c3nc([C@H]4CC[C@H](C(=O)O)CC4)n4ncnc(N)c34)[nH]c12 [OSI-027] (partner 0.5 µM)
Summary of the method: (§1)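 Lung cancer cell lines in 1536-well plates got either a single drug or a fixed anchor-drug dose together with five library-drug doses (not always all listed) in √10 steps, by pin tool, on the day after seeding. Nuclei were counted after 5 days, and relative viability is the treated-to-vehicle ratio of nuclei counts. Values are medians of duplicate plates.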

[2] = compound: CC1=CC(=NN1)NC2=CC(=NC(=N2)/C=C/C3=CC=CC=C3)N4CCN(CC4)C + N=C(N)NC(=N)NCCc1ccccc1 [Phenformin] (partner 250 µM)
Summary of the method: as §1

[3] = compound: CC1=CC(=NN1)NC2=CC(=NC(=N2)/C=C/C3=CC=CC=C3)N4CCN(CC4)C + O=C(c1cc(Cc2n[nH]c(=O)c3ccccc23)ccc1F)N1CCN(C(=O)C2CC2)CC1 [Olaparib] (partner 8 µM)
Summary of the method: as §1

[4] = compound: COC1=CC(c2cc3ccccc3[nH]2)=N/C1=C\c1[nH]c(C)cc1C [Obatoclax] + CC1(C)CCC(c2ccc(Cl)cc2)=C(CN2CCN(c3ccc(C(=O)NS(=O)(=O)c4ccc(N[C@H](CCN5CCOCC5)CSc5ccccc5)c(S(=O)(=O)C(F)(F)F)c4)cc3)CC2)C1 [Navitoclax] (partner 0.5 µM)
Summary of the method: as §1

Cell Line	relative viability ([1]; first compound 0.0002 µM)	relative viability ([1]; first compound 0.000632 µM)	relative viability ([1]; first compound 0.002 µM)	relative viability ([1]; first compound 0.006325 µM)	relative viability ([1]; first compound 0.02 µM)	relative viability ([2]; first compound 0.08 µM)	relative viability ([2]; first compound 0.253 µM)	relative viability ([2]; first compound 0.8 µM)	relative viability ([2]; first compound 2.53 µM)	relative viability ([2]; first compound 8 µM)	relative viability ([3]; first compound 0.08 µM)	relative viability ([3]; first compound 0.253 µM)	relative viability ([3]; first compound 0.8 µM)	relative viability ([3]; first compound 2.53 µM)	relative viability ([3]; first compound 8 µM)	relative viability ([4]; first compound 0.01 µM)	relative viability ([4]; first compound 0.03162 µM)	relative viability ([4]; first compound 0.1 µM)	relative viability ([4]; first compound 0.3162 µM)	relative viability ([4]; first compound 1 µM)
HCC-44	0.462	0.523	0.472	0.252	0.197	0.123	0.326	0.215	0.102	0.115	0.974	1.01	0.956	0.965	0.759	0.923	0.803	0.989	0.911	1.05
HCC-78	0.36	0.352	0.372	0.385	0.263	0.647	0.704	0.722	0.381	0.293	0.732	0.902	0.903	0.673	0.29	0.81	0.807		0.575	0.668
HCC-366	0.821	0.539	1.1	0.742	0.047	0.63	0.7	0.62	0.189	0.0317	0.332	0.39	0.24	0.0237	0.0171	0.969	1.03	1.05	0.988	1.01
HCC-827	0.837	0.747	0.859	0.236	0.103	0.39	0.402	0.435	0.401	0.216	0.605	0.622	0.708	0.62	0.263	0.997	0.99	1.06	0.988	1
HOP-62	0.981	0.914	0.691	0.149	0.0803	0.713	0.758	0.688	0.459	0.26	0.366	0.521	0.436	0.395	0.194	1.06	1.01	1.01	0.989	0.932
IA-LM											0.839	0.899	0.981	1.02	0.174	0.852	0.855	0.666	0.065	0.0608
LC-2-ad	0.76	0.621	0.986	0.209	0.174	0.554	0.571	0.501	0.251	0.172	0.692	0.687	0.704	0.471	0.164	0.359	0.446	0.311	0.26	0.145
LCLC-97TM1	0.475	0.336	0.583	0.233	0.129	0.448	0.468	0.41	0.236	0.154	0.258	0.565	0.323	0.214	0.0672	0.38	0.439	0.387	0.346	0.474
LCLC-103H	0.482	0.511	0.492	0.201	0.14	0.344	0.34	0.333	0.326	0.232	0.775	0.846	0.716	0.668	0.481					
LK-2	0.223	0.174	0.175	0.175	0.177	0.313	0.327	0.309	0.111	0.117	0.699	0.772	0.684	0.29	0.0845	0.885	0.822	0.957	0.864	1.02
NCI-H358	0.849	0.547	0.703	0.0722	0.0716	0.272	0.377	0.229	0.0644	0.0549	0.505	0.644	0.486	0.209	0.068					
NCI-H522	0.632	0.556	0.724	0.439	0.465	0.664	0.632	0.712	0.544	0.484	0.64	0.647	0.61	0.472	0.319					
NCI-H661	0.659	0.658	0.688	0.33	0.183	0.282		0.265	0.226	0.211	0.658	0.826	0.752	0.424	0.275					
NCI-H1299											0.961	0.924	0.975	0.616	0.167	1.04	1.07	1.04	1.07	0.997
NCI-H1563	0.795	0.751	0.653	0.519	0.485	0.726	0.659	0.664	0.592	0.43										
NCI-H1623	0.434	0.473	0.468	0.36	0.295	0.6	0.615	0.583	0.563	0.343										
NCI-H1648	0.256	0.293	0.251	0.256	0.229						0.979	0.797	0.813	0.747	0.361					
NCI-H1703											0.355	0.392	0.167	0.168	0.0731	1.27	1.34	0.955	0.385	0.292
NCI-H2342	0.656	0.524	0.616	0.634	0.587	0.523	0.597	0.565	0.604	0.245	0.411	0.419	0.417	0.412	0.268					
SW 900	0.527	0.414	0.143	0.0928	0.108	0.467	0.529	0.6	0.172	0.0691	0.863	0.89	0.805	0.298	0.107					
